Results published in patent US20120245184A1 (Aderans Research Institute, Inc., priority 2006, published 2012).
Counter-ions that a name gives are not always drawn.

What was measured:
sonic hedgehog pathway [1] = assay: Hedgehog reporter assay (gli-luciferase) in TM3 cells; assay type: cell-based, mouse; details: read-out: TM3 Avg. EC50
From the text: (§1) Mouse (TM3: mouse Leydig cells; S12: mouse embryonic mesenchymal cells) and human (Daoy: human medulloblastoma cell; HepM: human embryonic palatal mesenchymal cell) cell lines are used to screen small molecules for their ability to modulate the activity of the sonic hedgehog pathway (Table 1, Table 2, and Table 3). Stable hedgehog pathway reporter cell lines are established by specific antibiotic selection following transfection of a reporter plasmid containing a luciferase gene located directly downstream from the gli promoter. Consequently, any observable changes in cellular luciferase activity may be attributed to changes in sonic hedgehog pathway activity in mouse and human cells, respectively, since gli is the major by-product of this pathway. To calculate activity, we generate an eleven point dose curve for each compound using 1:3 dilutions in 96 well assay plates. Each plate tested also contains low and high control to establish maximal pathway activation so to establish/compare a percentage activation of each tested compound (AMAX) on respective plates.
(§2) Stable hedgehog pathway reporter cell lines are established following specific antibiotic selection following transfection of a reporter plasmid
(§3) In short, typically cells are plated in MicroTiter-plates at 10,000-20,000 cells per well, in growth media (containing 10%-20% FBS). After 48-72 hrs (HGL and DGL respectively) the media in the assay plates is switched to low-serum containing media (0.5% FBS). At that time compounds are added (at 1-5 μM) to the assay plates, in the presence or absence of hedgehog protein (octyl-modified version; 1-5 ng/ml). After another 24 hrs of incubation, the media from the assay plates is discarded and replaced with luciferase assay-mix. Subsequently, plates are incubated at RT for ˜15-30 mins and then read in a luminometer. [note: addition of the Hedgehog protein, although not critical, will sensitize the assay allowing the identification of weak actives].

sonic hedgehog pathway [2] = assay: Human hedgehog reporter assay HEPM-GliLuc (HGL); assay type: cell-based; details: read-out: HEPM Avg. EC50
From the text: as §1, §2, §3

sonic hedgehog pathway [3] = assay: Human hedgehog reporter assay Daoy-GliLuc (DGL); assay type: cell-based; details: Daoy human medulloblastoma cells, gli-luciferase reporter; read-out: Daoy Avg. EC50
From the text: as §1, §2, §3

[4] = TM3 mouse Leydig cells, gli-luciferase reporter
[5] = HepM human embryonic palatal mesenchymal cells, gli-luciferase reporter

With `CNC1CCC(N(Cc2cc(-c3ccc(N)nc3)ccc2OC)C(=O)c2sc3c(F)ccc(F)c3c2Cl)CC1` (centres unmarked) [Compound 352 (R18), 3-Chloro-4,7-difluoro-benzo[b]thiophene-2-carboxylic acid[5-(6-amino-pyridin-3-yl)-2-methoxy-benzyl]-(4-methylamino-cyclohexyl)-amide dihydrochloride] the EC50 (sonic hedgehog pathway [1]; [4]) was under 0.05 µM, the EC50 (sonic hedgehog pathway [2]; [5]) was under 0.05 µM and the EC50 (sonic hedgehog pathway [3]) was under 0.05 µM.

`CNC1CCC(N(Cc2cc(-c3cc(C)nc(C)c3)ccc2OC)C(=O)c2sc3ccccc3c2Cl)CC1` (centres unmarked) [Compound R1, 3-Chloro-benzo[b]thiophene-2-carboxylic acid[5-(2,6-dimethyl-pyridin-4-yl)-2-methoxy-benzyl]-(4-methylamino-cyclohexyl)-amide dihydrochloride] gave an EC50 (sonic hedgehog pathway [1]; [4]) of under 0.05 µM and an EC50 (sonic hedgehog pathway [2]; [5]) of 0.05 to 0.25 µM.

For `CN[C@H]1CC[C@H](N(Cc2cc(-c3ccc(F)cc3)ccc2OC)C(=O)c2sc3ccccc3c2Cl)CC1` [Compound 314, 3-Chloro-benzo[b]thiophene-2-carboxylic acid (4′-fluoro-4-methoxy-biphenyl-3-ylmethyl)-(4-methylamino-cyclohexyl)-amide hydrochloride], the EC50 (sonic hedgehog pathway [1]; [4]) was under 0.05 µM and the EC50 (sonic hedgehog pathway [3]) was under 0.05 µM.

Compound `CNC1CCC(N(Cc2cc(-c3ccnc(C(=O)O)c3)ccc2OC)C(=O)c2sc3c(F)ccc(F)c3c2Cl)CC1` (centres unmarked) [Compound R6, 4-(3-{[(3-Chloro-4,7-difluoro-benzo[b]thiophene-2-carbonyl)-(4-methylamino-cyclohexyl)-amino]-methyl}-4-methoxy-phenyl)-pyridine-2-carboxylic acid bis(trifluoroacetate)] has an EC50 (sonic hedgehog pathway [1]; [4]) of 0.05 to 0.25 µM and an EC50 (sonic hedgehog pathway [2]; [5]) of 0.05 to 0.25 µM.

Work on `CCOc1ccc(-c2ccc(C(F)(F)F)cc2)cc1CN(C(=O)c1sc2ccccc2c1Cl)C1CCC(NC)CC1` (centres unmarked) [Compound 309, 3-Chloro-benzo[b]thiophene-2-carboxylic acid (4-ethoxy-4′-trifluoromethyl-biphenyl-3-ylmethyl)-(4-methylamino-cyclohexyl)-amide hydrochloride] yielded an EC50 (sonic hedgehog pathway [1]; [4]) of 0.05 to 0.25 µM and an EC50 (sonic hedgehog pathway [3]) of under 0.05 µM.

`CCOc1ccc(-c2ccc(C(=O)C(F)(F)F)cc2)cc1CN(C(=O)c1sc2c(F)ccc(C)c2c1Cl)[C@H]1CC[C@@H](NC)CC1` [Compound 341, 3-Chloro-4,7-difluoro-benzo[b]thiophene-2-carboxylic acid[4-ethoxy-4′-(2,2,2-trifluoro-acetyl)-biphenyl-3-ylmethyl]-(4-methylamino-cyclohexyl)-amide trifluoroacetate] was tested, and the EC50 (sonic hedgehog pathway [1]; [4]) was under 0.05 µM and the EC50 (sonic hedgehog pathway [2]; [5]) was 0.05 to 0.25 µM.

With `CNC1CCC(N(Cc2cc(-c3ccnc(C)c3)ccc2OC)C(=O)c2sc3ccccc3c2Cl)CC1` (centres unmarked) [331 (R11), 3-Chloro-benzo[b]thiophene-2-carboxylic acid[2-methoxy-5-(2-methyl-pyridin-4-yl)-benzyl]-(4-methylamino-cyclohexyl)-amide dihydrochloride] the EC50 (sonic hedgehog pathway [1]; [4]) was under 0.05 µM and the EC50 (sonic hedgehog pathway [2]; [5]) was under 0.05 µM.

Compound `CCOc1ccc(-c2ccc(OC)cc2)cc1CN(C(=O)c1sc2ccccc2c1Cl)C1CCC(NC)CC1` (centres unmarked) [Compound 312, 3-Chloro-benzo[b]thiophene-2-carboxylic acid (4-ethoxy-4′-methoxy-biphenyl-3-ylmethyl)-(4-methylamino-cyclohexyl)-amide hydrochloride] has an EC50 (sonic hedgehog pathway [3]) of 0.05 to 0.25 µM.

`CNC1CCC(N(Cc2cc(-c3ccncc3)ccc2OC)C(=O)c2sc3ccccc3c2Cl)CC1` (centres unmarked) [Compound 339 (R12), 3-Chloro-benzo[b]thiophene-2-carboxylic acid (2-methoxy-5-pyridin-4-yl-benzyl)-(4-methylamino-cyclohexyl)-amide dihydrochloride] gave an EC50 (sonic hedgehog pathway [1]; [4]) of under 0.05 µM and an EC50 (sonic hedgehog pathway [2]; [5]) of under 0.05 µM.

Work on `CNC1CCC(N(Cc2cc(-c3cccc(C#N)c3)ccc2OC)C(=O)c2sc3c(F)ccc(F)c3c2Cl)CC1` (centres unmarked) [Compound 337, 3-Chloro-4,7-difluoro-benzo[b]thiophene-2-carboxylic acid (3′-cyano-4-methoxy-biphenyl-3-ylmethyl)-(4-methylamino-cyclohexyl)-amide hydrochloride] yielded an EC50 (sonic hedgehog pathway [1]; [4]) of under 0.05 µM and an EC50 (sonic hedgehog pathway [2]; [5]) of under 0.05 µM.

For `CNC1CCC(N(Cc2cc(-c3ccc(S(C)(=O)=O)cc3)ccc2OC)C(=O)c2sc3ccccc3c2Cl)CC1` (centres unmarked) [Compound R7, 3-Chloro-benzo[b]thiophene-2-carboxylic acid (4′-methanesulfonyl-4-methoxy-biphenyl-3-ylmethyl)-(4-methylamino-cyclohexyl)-amide hydrochloride], the EC50 (sonic hedgehog pathway [1]; Mus musculus, Leydig) was under 0.05 µM and the EC50 (sonic hedgehog pathway [2]; Homo sapiens) was under 0.05 µM.

`CCOc1ccc(-c2ccc(C#N)cc2)cc1CN(C(=O)c1sc2ccccc2c1Cl)C1CCC(NC)CC1` (centres unmarked) [Compound R2, 3-Chloro-benzo[b]thiophene-2-carboxylic acid (4′-cyano-4-ethoxy-biphenyl-3-ylmethyl)-(4-methylamino-cyclohexyl)-amide hydrochloride] gave an EC50 (sonic hedgehog pathway [1]; [4]) of 0.05 to 0.25 µM and an EC50 (sonic hedgehog pathway [2]; [5]) of 0.05 to 0.25 µM.

`CN[C@H]1CC[C@@H](N(Cc2cc(-c3ccc(C(C)=O)cc3)ccc2OC)C(=O)C2=C(Cl)c3c(F)ccc(F)c3C2)CC1` [Compound R8, 3-Chloro-4,7-difluoro-benzo[b]thiophene-2-carboxylic acid(4′-carbamoyl-4-methoxy-biphenyl-3-ylmethyl)-(4-methylamino-cyclohexyl)-amide hydrochloride] showed an EC50 (sonic hedgehog pathway [1]; [4]) of under 0.05 µM and an EC50 (sonic hedgehog pathway [2]; [5]) of under 0.05 µM.

`CNc1ncc(-c2ccc(OC)c(CN(C(=O)c3sc4ccccc4c3Cl)[C@H]3CC[C@H](NC)CC3)c2)cn1` [Compound 322, 3-Chloro-benzo[b]thiophene-2-carboxylic acid[2-methoxy-5-(2-methylamino-pyrimidin-5-yl)-benzyl]-(4-methylamino-cyclohexyl)-amide dihydrochloride] was tested, and the EC50 (sonic hedgehog pathway [1]; [4]) was 0.25 to 1 µM and the EC50 (sonic hedgehog pathway [3]) was 0.05 to 0.25 µM.

`CNC1CCC(N(Cc2cc(-c3ccc(C(F)(F)F)cc3)ccc2OC)C(=O)c2sc3ccccc3c2Cl)CC1` (centres unmarked) [Compound 306, 3-Chloro-benzo[b]thiophene-2-carboxylic acid (4-methoxy-4′-trifluoromethyl-biphenyl-3-ylmethyl)-(4-methylamino-cyclohexyl)-amide trifluoroacetate] showed an EC50 (sonic hedgehog pathway [1]; [4]) of 0.05 to 0.25 µM and an EC50 (sonic hedgehog pathway [3]) of under 0.05 µM.

For `CNC1CCC(N(Cc2cc(-c3ccc(Cl)cc3)ccc2OC)C(=O)c2sc3ccccc3c2Cl)CC1` (centres unmarked) [Compound 308, 3-Chloro-benzo[b]thiophene-2-carboxylic acid (4′-chloro-4-methoxy-biphenyl-3-ylmethyl)-(4-methylamino-cyclohexyl)-amide hydrochloride], the EC50 (sonic hedgehog pathway [1]; [4]) was under 0.05 µM and the EC50 (sonic hedgehog pathway [3]) was under 0.05 µM.

Compound `CN[C@H]1CC[C@H](N(Cc2cc(-c3cccc(C(C)=O)c3)ccc2OC)C(=O)c2sc3cccc(F)c3c2Cl)CC1` [Compound 363, 3-Chloro-4-fluoro-benzo[b]thiophene-2-carboxylic acid (3′-acetyl-4-methoxy-biphenyl-3-ylmethyl)-(4-methylamino-cyclohexyl)-amide hydrochloride] has an EC50 (sonic hedgehog pathway [1]; [4]) of under 0.05 µM and an EC50 (sonic hedgehog pathway [3]) of under 0.05 µM.

Work on `CNC1CCC(N(Cc2cc(-c3ccc(C#N)cc3)ccc2OC)C(=O)c2sc3c(F)ccc(F)c3c2Cl)CC1` (centres unmarked) [Compound 351, 3-Chloro-4,7-difluoro-benzo[b]thiophene-2-carboxylic acid (4′-cyano-4-methoxy-biphenyl-3-ylmethyl)-(4-methylamino-cyclohexyl)-amide hydrochloride] yielded an EC50 (sonic hedgehog pathway [1]; [4]) of under 0.05 µM and an EC50 (sonic hedgehog pathway [2]; [5]) of under 0.05 µM.

Work on `CNC1CCC(N(Cc2cc(-c3ccc(OC(F)(F)F)cc3)ccc2OC)C(=O)c2sc3ccccc3c2Cl)CC1` (centres unmarked) [Compound 307, 3-Chloro-benzo[b]thiophene-2-carboxylic acid (4-methoxy-4′-trifluoromethoxy-biphenyl-3-ylmethyl)-(4-methylamino-cyclohexyl)-amide hydrochloride] yielded an EC50 (sonic hedgehog pathway [1]; [4]) of under 0.05 µM and an EC50 (sonic hedgehog pathway [3]) of under 0.05 µM.

For `CCOc1ccc(-c2ccccc2)cc1CN(C(=O)c1sc2ccccc2c1Cl)C1CCC(NC)CC1` (centres unmarked) [Compound 313, 3-Chloro-benzo[b]thiophene-2-carboxylic acid (4-ethoxy-biphenyl-3-ylmethyl)-(4-methylamino-cyclohexyl)-amide hydrochloride], the EC50 (sonic hedgehog pathway [1]; [4]) was 0.05 to 0.25 µM and the EC50 (sonic hedgehog pathway [3]) was under 0.05 µM.

For `CCOc1ccc(-c2ccc(C)nc2)cc1CN(C(=O)c1sc2ccccc2c1Cl)C1CCC(NC)CC1` (centres unmarked) [Compound R4, 3-Chloro-benzo[b]thiophene-2-carboxylic acid[2-ethoxy-5-(6-methyl-pyridin-3-yl)-benzyl]-(4-methylamino-cyclohexyl)-amide dihydrochloride], the EC50 (sonic hedgehog pathway [1]; [4]) was 0.05 to 0.25 µM and the EC50 (sonic hedgehog pathway [2]; [5]) was 0.05 to 0.25 µM.

For `CN[C@H]1CC[C@H](N(Cc2cc(-c3cnc(N)nc3)ccc2OC)C(=O)c2sc3ccccc3c2Cl)CC1` [Compound 323, 3-Chloro-benzo[b]thiophene-2-carboxylic acid[5-(2-amino-pyrimidin-5-yl)-2-methoxy-benzyl]-(4-methylamino-cyclohexyl)-amide dihydrochloride], the EC50 (sonic hedgehog pathway [1]; [4]) was 0.05 to 0.25 µM and the EC50 (sonic hedgehog pathway [3]) was under 0.05 µM.
